Columns and labels:
H3.3-FKBP12^F36V [1] = biological target: T1, H3.3-FKBP12^F36V (Homo sapiens, UniProt P62942+Q09472, F37V); experiment: Immunoblot analysis of H3.3-FKBP12^F36V acetylation in HeLa cells; type: cell-based
T1 construct: expressed in transfected cells
Method: Lentivirus Production and Transduction: Lentiviral production was performed using HEK293T cells, which were co-transfected with pMD2.G (Addgene, #12259), psPAX2 (Addgene, #12260), and AceTAG lentiviral plasmids using PEI (Polysciences Inc). Viral particles were collected 72 h after transfection and filtered through a […] membrane. A range of dilutions of the lentivirus in DMEM complete and 10 μg/mL polybrene were added to HeLa, H1299, or HeLa RelA KO cell lines. Transduced cells were selected with 1 μg/mL or 2 μg/mL puromycin.
Immunoblotting: Cells were harvested in cold DPBS by scraping and washed with cold DPBS twice. Cell pellets were resuspended in DPBS supplemented with 5 mM sodium butyrate, 20 mM Nicotinamide, and 1X Halt Protease Inhibitor Cocktail and lysed by sonication (15 ms on, 40 ms off, 15% amplitude, 1s total on x 3). Protein concentration was determined using DC Protein Assay (Bio-Rad) and absorbance read using a CLARIOstar plate reader following manufacturer's instructions. Samples with equal protein content were boiled in 4X SDS gel loading buffer for 10 min. Proteins were separated by 10%, 12.5%, or 15% SDS-polyacrylamide gel electrophoresis and transferred to PVDF membranes using Trans-Blot Turbo RTA Mini […] LF PVDF Transfer Kit (Bio-Rad). Membranes were incubated for 1 h at room temperature with blocking buffer, followed by incubating overnight at 4° C. with primary antibodies. After washing in TBST, the secondary antibodies were incubated with the membranes at room temperature for 1 h. The membranes were washed with TBST for three times and visualized on a Bio-Rad ChemiDoc MP Imaging System with Clarity Max Western ECL substrate (Bio-Rad) or SuperSignal West Femto Chemiluminescent substrate proprietary luminol and peroxide solution kit (Thermo Scientific Pierce).

H3.3-FKBP12^F36V [2] = biological target: T1, H3.3-FKBP12^F36V; experiment: Quantitative proteomic (TMT MS) analysis of H3.3 acetylation; type: cell-based; conditions: 625 nM AceTAG-1 vs DMSO, FIG. 5A
Method: Sample preparation: Cells were split in 10 cm dishes in indicated media. The probes were added once the cells grew to 60%-70% confluency and incubated for indicated time. The cells were harvested and washed with cold DPBS twice. The pelleted cells were lysed in 1 mL lysis buffer, containing 10 mM Tris pH 7.5, 300 mM NaCl, 0.1% (v/v) NP40, 5 mM sodium butyrate, 20 mM Nicotinamide, and 1X Halt Protease Inhibitor, followed by centrifuging for 5 min at 1,000 g at 4° C. The pellets were resuspended in benzonase buffer, containing 50 mM Tris pH 7.5, 300 mM NaCl, 0.5% NP40, and 2.5 mM MgCl2. Protein concentration was normalized by DC Protein Assay (Bio-Rad) and equal amount of protein was subjected to 50 U/100 ml benzonase nuclease (Millipore Sigma) treatment.
Samples with benzonase were incubated on ice for 30 min and centrifuged at 300 g for 3 min at 4° C. to obtain soluble chromatin fraction. Samples were diluted with dilution buffer, containing 50 mM Tris pH 7.5, 300 mM NaCl, 0.5% NP40, and 15 mM EDTA to quench the benzonase activity. Protein concentration was normalized again by DC Protein Assay (Bio-Rad) and equal amount of protein was used for HA-tag protein enrichment as described above. The beads were washed with lysis buffer and DPBS and incubated with 8 M urea and boiled in 4X SDS gel loading buffer at 95° C. for 15 min. […]

T1 sequence (P62942 2-108 F37V limits assumed): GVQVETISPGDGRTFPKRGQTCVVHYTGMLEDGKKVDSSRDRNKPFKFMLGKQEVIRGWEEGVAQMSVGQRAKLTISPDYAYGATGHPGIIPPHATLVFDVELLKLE
T1 sequence (Q09472 2-2414 limits assumed, stated change not applied): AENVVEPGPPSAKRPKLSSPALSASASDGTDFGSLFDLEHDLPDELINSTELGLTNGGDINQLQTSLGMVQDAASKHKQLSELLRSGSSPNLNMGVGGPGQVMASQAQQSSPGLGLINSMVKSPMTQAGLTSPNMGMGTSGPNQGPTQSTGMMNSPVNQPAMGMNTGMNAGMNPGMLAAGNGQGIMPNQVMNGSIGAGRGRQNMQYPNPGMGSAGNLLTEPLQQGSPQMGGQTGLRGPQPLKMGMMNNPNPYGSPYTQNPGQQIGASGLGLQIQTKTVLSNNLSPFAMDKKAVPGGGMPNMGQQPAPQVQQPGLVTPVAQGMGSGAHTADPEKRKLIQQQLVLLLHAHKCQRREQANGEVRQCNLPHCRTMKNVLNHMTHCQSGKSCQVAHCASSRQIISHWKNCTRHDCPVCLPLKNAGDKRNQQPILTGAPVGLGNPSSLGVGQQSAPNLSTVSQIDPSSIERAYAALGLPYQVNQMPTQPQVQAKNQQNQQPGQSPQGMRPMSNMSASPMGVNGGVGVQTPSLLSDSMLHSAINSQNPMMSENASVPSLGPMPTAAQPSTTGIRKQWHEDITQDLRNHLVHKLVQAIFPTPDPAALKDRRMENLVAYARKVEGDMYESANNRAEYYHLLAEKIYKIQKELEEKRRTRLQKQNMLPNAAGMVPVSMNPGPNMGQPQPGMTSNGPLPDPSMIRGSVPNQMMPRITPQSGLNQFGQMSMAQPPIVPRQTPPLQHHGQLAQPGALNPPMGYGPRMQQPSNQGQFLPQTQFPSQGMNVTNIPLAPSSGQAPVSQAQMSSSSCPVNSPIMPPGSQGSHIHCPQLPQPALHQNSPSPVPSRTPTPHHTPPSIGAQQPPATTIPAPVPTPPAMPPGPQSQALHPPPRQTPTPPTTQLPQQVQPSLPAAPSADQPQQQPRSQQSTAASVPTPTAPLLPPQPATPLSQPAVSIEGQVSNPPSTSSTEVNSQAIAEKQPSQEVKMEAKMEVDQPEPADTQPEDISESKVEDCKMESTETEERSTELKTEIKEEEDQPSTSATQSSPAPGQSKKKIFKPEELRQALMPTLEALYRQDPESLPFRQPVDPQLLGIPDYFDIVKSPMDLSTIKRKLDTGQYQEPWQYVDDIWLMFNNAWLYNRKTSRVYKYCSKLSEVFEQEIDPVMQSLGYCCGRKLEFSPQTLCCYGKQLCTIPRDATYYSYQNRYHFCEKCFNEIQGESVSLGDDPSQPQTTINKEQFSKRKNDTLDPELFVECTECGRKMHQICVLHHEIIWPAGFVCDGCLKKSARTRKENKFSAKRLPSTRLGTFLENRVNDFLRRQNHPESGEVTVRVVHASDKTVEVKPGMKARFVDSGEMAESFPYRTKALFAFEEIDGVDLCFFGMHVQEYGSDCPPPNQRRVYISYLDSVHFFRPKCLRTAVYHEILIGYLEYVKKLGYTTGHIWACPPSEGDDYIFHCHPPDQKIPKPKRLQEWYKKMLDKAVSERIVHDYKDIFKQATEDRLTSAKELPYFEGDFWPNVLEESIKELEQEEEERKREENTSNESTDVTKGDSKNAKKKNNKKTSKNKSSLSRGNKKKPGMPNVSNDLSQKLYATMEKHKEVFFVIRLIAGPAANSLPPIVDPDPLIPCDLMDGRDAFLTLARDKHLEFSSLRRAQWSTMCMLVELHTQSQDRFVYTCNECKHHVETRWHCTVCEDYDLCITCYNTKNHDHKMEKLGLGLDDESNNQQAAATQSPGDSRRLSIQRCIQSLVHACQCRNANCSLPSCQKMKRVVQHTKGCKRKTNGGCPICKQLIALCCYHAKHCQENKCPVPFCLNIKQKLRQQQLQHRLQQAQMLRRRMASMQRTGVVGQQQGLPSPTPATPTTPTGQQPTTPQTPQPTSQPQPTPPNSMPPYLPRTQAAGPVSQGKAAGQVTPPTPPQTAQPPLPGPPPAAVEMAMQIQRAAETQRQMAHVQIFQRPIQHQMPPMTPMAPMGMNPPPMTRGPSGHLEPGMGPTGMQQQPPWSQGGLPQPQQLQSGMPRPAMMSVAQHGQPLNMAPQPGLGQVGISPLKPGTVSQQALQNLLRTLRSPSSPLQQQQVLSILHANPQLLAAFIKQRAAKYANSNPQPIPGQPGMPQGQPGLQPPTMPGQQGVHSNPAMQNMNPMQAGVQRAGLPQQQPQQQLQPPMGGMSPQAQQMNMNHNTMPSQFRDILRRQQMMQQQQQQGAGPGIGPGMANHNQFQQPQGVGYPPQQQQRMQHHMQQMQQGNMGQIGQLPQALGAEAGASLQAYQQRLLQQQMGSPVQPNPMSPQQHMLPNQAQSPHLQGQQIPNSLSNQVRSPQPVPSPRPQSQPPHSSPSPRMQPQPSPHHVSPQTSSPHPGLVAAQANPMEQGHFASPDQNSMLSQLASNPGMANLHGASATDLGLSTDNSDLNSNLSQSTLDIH

CC[C@H](C(=O)N1CCCC[C@H]1C(=O)O[C@H](CCc1ccc(OC)c(OC)c1)c1cccc(OCC(=O)NCCOCCOCCC(=O)NCCOc2ccc(CCc3nc4cc(-c5c(C)noc5C)ccc4n3CCN3CCOCC3)cc2)c1)c1cc(OC)c(OC)c(OC)c1 [AceTAG-1, (R)-3-(3,4-dimethoxyphenyl)-1-(3-((15-(4-(2-(5-(3,5-dimethylisoxazol-4-yl)-1-(2-morpholinoethyl)-1H-benzo[d]imidazol-2-yl)ethyl)phenoxy)-2,12-dioxo-6,9-dioxa-3,13-diazapentadecyl)oxy)phenyl)propyl (S)-1-((S)-2-(3,4,5-trimethoxyphenyl)butanoyl)piperidine-2-carboxylate]
treatment time after which H3.3-FKBP12^F36V acetylation significantly increased (H3.3-FKBP12^F36V [1]; 625 nM AceTAG-1, FIG. 4E): 5 min
acetylation level at high concentration (hook effect) (H3.3-FKBP12^F36V [1]; 50 μM AceTAG-1): loss of acetylation level
K18 acetylation, comparison of analogs (H3.3-FKBP12^F36V [1]; FIG. 9B): modestly higher levels of acetylation relative to the other analogs
acetylation of H3.3 (H3.3-FKBP12^F36V [1]; HeLa cells, FIG. 8): significant acetylation of H3.3
H3.3 acetylation at lysine 18, 23, and 27 (H3.3-FKBP12^F36V [1]; increasing concentrations, 2 hr, FIG. 4B): dose-dependent increase
H3.3 acetylation at lysine 9, 14, or 79 (H3.3-FKBP12^F36V [1]; increasing concentrations, 2 hr, FIG. 4C): not lysine 9, 14, or 79
time for H3.3 K18 acetylation to reach near basal levels after compound removal (H3.3-FKBP12^F36V [1]; washout, FIG. 4F): ≤ 2 h
acetylation at K18, K23, and K27 by quantitative MS (H3.3-FKBP12^F36V [2]): substantial increases
acetylation at other identified lysines on H3.3 by quantitative MS (H3.3-FKBP12^F36V [2]): no acetylation

Reference: patent US20240238426A1, “PROTEIN ACYLATION MODULATION BY HETEROBIFUNCTIONAL MOLECULES” (THE SCRIPPS RESEARCH INSTITUTE, priority 2021, published 2024)
